From patent US20110098352A1, “N,N-DISUBSTITUTED AMINOALKYLBIPHENYL ANTAGONISTS OF PROSTAGLANDIN D2 RECEPTORS” (AMIRA PHARMACEUTICALS, INC., priority 2008, published 2011)

Key:
human DP1 receptor = target: T1, human DP1 receptor (Homo sapiens, UniProt Q13258); assay: DP1 radioligand membrane binding assay using [3H]BWA868C; conditions: [3H]BWA868C binding, human platelet membranes; read-out: hDP1
T1 construct: tissue Biological Specialty Corporation; host or cells: human platelets, membranes
T1 sequence (Q13258 1-359): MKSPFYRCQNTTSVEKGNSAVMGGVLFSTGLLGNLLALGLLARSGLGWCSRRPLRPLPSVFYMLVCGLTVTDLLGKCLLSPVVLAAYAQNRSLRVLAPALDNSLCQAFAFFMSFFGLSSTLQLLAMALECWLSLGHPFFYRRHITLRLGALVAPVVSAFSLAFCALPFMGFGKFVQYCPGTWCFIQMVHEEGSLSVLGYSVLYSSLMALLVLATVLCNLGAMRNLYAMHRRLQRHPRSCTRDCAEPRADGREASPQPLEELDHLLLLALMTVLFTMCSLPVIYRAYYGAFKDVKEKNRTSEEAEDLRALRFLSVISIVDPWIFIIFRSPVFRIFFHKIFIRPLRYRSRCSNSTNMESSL
Method: The ability of a compound to bind to the human DP1 receptor was evaluated via a radioligand membrane binding assay using the DP1 selective synthetic ligand [^3H]BWA868C. Packed human platelets (Biological Specialty Corporation), were resuspended in 6 volumes of Hepes/HBSS buffer (10 mM Hepes, 1 mM DTT in Hanks Balanced Salt Solution (HBSS)), lysed and centrifuged at 75,000×g to pellet the membranes. Membranes were resuspended in Hepes/HBSS buffer to approximately 12 mg protein/ml. Membranes (20 μg protein/well) are incubated in 96-well plates with 2 nM [^3H]BWA868C and test compound in Assay Buffer (50 mM Hepes, 10 mM MnCl2, 1 mM EDTA, plus or minus 0.2% human serum albumin, pH 7.4) for 60 minutes at room temperature. The reactions are terminated by rapid filtration through Whatman GF/C glass fibre filter plates. The filter plates were pre-soaked in […] polethylenimine for 30 minutes at room temperature then washed in Wash Buffer (50 mM Hepes, 0.5 M NaCl pH 7.4) prior to harvesting. After harvesting, the filter plates are washed 3 times with 1 ml cold Wash Buffer then dried. Scintillant is then added to the plates and the radioactivity retained on the filters is determined on a Packard TopCount (Perkin Elmer). Specific binding is determined as total radioactive binding minus non-specific binding in the presence of 10 μM BWA868C. IC50s were determined using GraphPad prism analysis of drug titration curves.

[1] = target: T2, recombinant human CRTH2 receptor (Homo sapiens, UniProt Q9Y5Y4); assay: GTPγS binding assay; assay type: biochemical; conditions: +HSA; CHO cell membranes, 80 nM PGD2; read-out: hDP2 GTPγS μM (+HSA)
T2 construct: expressed in transfected cells
T2 sequence (Q9Y5Y4 1-395): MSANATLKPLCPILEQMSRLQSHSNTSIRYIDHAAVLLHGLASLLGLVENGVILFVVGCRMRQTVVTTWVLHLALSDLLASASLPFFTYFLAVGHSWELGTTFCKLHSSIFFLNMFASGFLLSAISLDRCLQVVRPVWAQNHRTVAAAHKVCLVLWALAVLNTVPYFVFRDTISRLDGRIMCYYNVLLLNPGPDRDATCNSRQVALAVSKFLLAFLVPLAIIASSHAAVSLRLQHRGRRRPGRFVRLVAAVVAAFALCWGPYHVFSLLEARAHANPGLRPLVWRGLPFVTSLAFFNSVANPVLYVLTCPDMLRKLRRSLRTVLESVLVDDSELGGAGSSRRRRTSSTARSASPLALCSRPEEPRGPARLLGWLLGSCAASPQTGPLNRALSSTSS
Method: The ability of a compound to inhibit binding of GTP to DP2 is assessed via a membrane GTPγS assay. CHO cells stably expressing the recombinant human CRTH2 receptor are resuspended in 10 mM Hepes, 7.4 containing 1 mM DTT, lysed and centrifuged at 75,000×g to pellet the membranes. The membranes are resuspended in 10 mM Hepes, 7.4 containing 1 mM DTT and 10% glycerol. […] The reactions are terminated by rapid filtration through Whatman GF/B glass fibre filter plates. The filter plates are washed 3 times with 1 ml cold Assay Buffer and dried. Scintillant is then added to the plates and the radioactivity retained on the filters is determined on a Packard TopCount (Perkin Elmer). Specific binding is determined as total radioactive binding minus non-specific binding in the absence of the ligand (80 nM PGD2). IC50s were determined using Graphpad prism analysis of drug titration curves.

human DP2 receptor = target: T3, human DP2 receptor (Homo sapiens, UniProt Q9Y5Y4); assay: DP2/CRTH2 radioligand binding assay using [3H]PGD2; conditions: [3H]PGD2 binding, membranes of HEK293 cells expressing recombinant human DP2; read-out: hDP2
T3 construct: expressed in transfected cells
T3 sequence (Q9Y5Y4 1-395): T2 sequence (Q9Y5Y4 1-395)
Method: The ability of a compound to bind to the human DP2 receptor is assessed via a radioligand binding assay using [^3H]PGD2. HEK293 cells stably expressing recombinant human DP2 are resuspended in 10 mM Hepes, 7.4 containing 1 mM DTT, lysed and centrifuged at 75,000×g to pellet the membranes. The membranes are resuspended in 10 mM Hepes, 7.4 containing 1 mM DTT and 10% glycerol to approximately 5 mg protein/ml. Membranes (2-10 μg protein/well) are incubated in 96-well plates with 1 nM [^3H]PGD2 and test compound in Assay Buffer (50 mM Hepes, 10 mM MnCl2, 1 mM EDTA, plus or minus 0.2% human serum albumin, pH 7.4) for 60 minutes at room temperature. The reactions are terminated by rapid filtration through Whatman GF/C glass fibre filter plates. The filter plates were pre-soaked in 0.33% polythylenimine for 30 minutes at room temperature then washed in Wash Buffer (50 mM Hepes, 0.5 M NaCl pH 7.4) prior to harvesting. After harvesting, the filter plates are washed 3 times with 1 ml cold Wash Buffer then dried. Scintillant is then added to the plates and the radioactivity retained on the filters is determined on a Packard TopCount (Perkin Elmer). Specific binding is determined as total radioactive binding minus non-specific binding in the presence of 10 μM PGD2. IC50s were determined using GraphPad prism analysis of drug titration curves.

SMILES	IC50 (human DP1 receptor)	IC50 [1]	IC50 (human DP2 receptor)
CCN(Cc1ccccc1)C(=O)N(CC)Cc1cc(C(F)(F)F)ccc1-c1cc(CC(=O)O)ccc1OC [Compound 1-94, [2′-(3-Benzyl-1,3-diethyl-ureidomethyl)-6-methoxy-4′-trifluoromethyl-biphenyl-3-yl]-acetic acid]	> 1 µM	< 0.3 µM	< 0.3 µM
CCN(Cc1cc(C(F)(F)F)ccc1-c1cc(CC(=O)O)ccc1OC)C(=O)COCc1ccccc1 [Compound 1-92, (2′-{[(2-Benzyloxy-acetyl)-ethyl-amino]-methyl}-6-methoxy-4′-trifluoromethyl-biphenyl-3-yl)-acetic acid]	> 1 µM	< 0.3 µM	< 0.3 µM
CCOc1ccc(CC(=O)O)cc1-c1ccc(C(F)(F)F)cc1CN(CC)C(=O)OCc1ccccc1 [Compound 1-129]	> 1 µM	< 0.3 µM	< 0.3 µM
CN(Cc1cc(C(F)(F)F)ccc1-c1cc(CC(=O)O)ccc1F)C(=O)OCc1ccccc1 [Compound 1-29, {2′-[(Benzyloxycarbonyl-methyl-amino)-methyl]-6-fluoro-4′-trifluoromethyl-biphenyl-3-yl}-acetic acid]	> 1 µM	< 0.3 µM	< 0.3 µM
COc1ccc(CC(=O)O)cc1-c1ccc(C(F)(F)F)cc1CN(C(C)=O)C1CCCC1 [Compound 1-31, {2′-[(Acetyl-cyclopentyl-amino)-methyl]-6-methoxy-4′-trifluoromethyl-biphenyl-3-yl}-acetic acid]	> 1 µM	< 0.3 µM	< 0.3 µM
COc1ccc(CC(=O)O)cc1-c1ccc(C(F)(F)F)cc1CN(C(C)=O)C1CC1 [Compound 1-12, {2′-[(Acetyl-cyclopropyl-amino)-methyl]-6-methoxy-4′-trifluoromethyl-biphenyl-3-yl}-acetic acid]	> 1 µM	< 0.3 µM	< 0.3 µM
COc1ccc(CC(=O)O)cc1-c1ccc(C(F)(F)F)cc1CN(C(=O)OCc1ccccc1)C1CCCC1 [Compound 1-35, {2′-[(Benzyloxycarbonyl-cyclopentyl-amino)-methyl]-6-methoxy-4′-trifluoromethyl-biphenyl-3-yl}-acetic acid]	0.3 to 1 µM	< 0.3 µM	< 0.3 µM
COc1ccc(CC(=O)O)cc1-c1ccc(C(F)(F)F)cc1CN(C)C(=O)OCc1ccccc1 [Compound 1-27, {2′-[(Benzyloxycarbonyl-methyl-amino)-methyl]-6-methoxy-4′-trifluoromethyl-biphenyl-3-yl)-acetic acid]	> 1 µM	< 0.3 µM	< 0.3 µM
CCN(Cc1cc(C(F)(F)F)ccc1-c1cc(CC(=O)O)ccc1OC)C(=O)OCc1cc(F)cc(F)c1 [Compound 1-40, (2′-{[(3,5-Difluoro-benzyloxycarbonyl)-ethyl-amino]-methyl}-6-methoxy-4′-trifluoromethyl-biphenyl-3-yl)-acetic acid]	> 1 µM	< 0.3 µM	< 0.3 µM
CCN(Cc1cc(C(F)(F)F)ccc1-c1cc(CC(=O)O)ccc1OC)C(=O)OCc1ccccc1Cl [Compound 1-39, (2′-{[(2-Chloro-benzyloxycarbonyl)-ethyl-amino]-methyl}-6-methoxy-4′-trifluoromethyl-biphenyl-3-yl)-acetic acid]	> 1 µM	< 0.3 µM	< 0.3 µM
CCN(Cc1cc(C(F)(F)F)ccc1-c1cc(CC(=O)O)ccc1OC)C(=O)C(F)(F)F [Compound 1-32, (2′-{[Ethyl-(2,2,2-trifluoro-acetyl)-amino]-methyl}-6-methoxy-4′-trifluoromethyl-biphenyl-3-yl)-acetic acid]	> 1 µM	< 0.3 µM	< 0.3 µM
CCN(Cc1cc(C(F)(F)F)ccc1-c1cc(CC(=O)O)ccc1Cl)C(=O)OCc1ccccc1 [Compound 1-110]	> 1 µM	< 0.3 µM	< 0.3 µM
CCN(Cc1cc(F)ccc1-c1cc(CC(=O)O)ccc1OC)C(=O)C1CC1 [Compound 1-186, {2′-[(Cyclopropanecarbonyl-ethyl-amino)-methyl]-4′-fluoro-6-methoxy-biphenyl-3-yl}-acetic acid]	> 1 µM	< 0.3 µM	< 0.3 µM
COc1ccc(CC(=O)O)cc1-c1ccc(C(F)(F)F)cc1CN(C(C)=O)C1CCC1 [Compound 1-30, {2′-[(Acetyl-cyclobutyl-amino)-methyl]-6-methoxy-4′-trifluoromethyl-biphenyl-3-yl}-acetic acid]	> 1 µM	< 0.3 µM	< 0.3 µM
CCN(Cc1cc(C(F)(F)F)ccc1-c1cc(CC(=O)O)ccc1OC)C(=O)OC(C)c1ccc(Cl)cc1 (stereo not drawn) [Compound 1-44, [2′-({[1-(4-Chloro-phenyl)-ethoxycarbonyl]-ethyl-amino)-methyl)-6-methoxy4′-trifluoromethyl-biphenyl-3-yl]-acetic acid]	> 1 µM	< 0.3 µM	< 0.3 µM
CCN(Cc1cc(C(F)(F)F)ccc1-c1cc(CC(=O)O)ccc1OC)C(=O)COC [Compound 1-46, (2′-{[Ethyl-(2-methoxy-acetyl)-amino]-methyl}-6-methoxy-4′-trifluoromethyl-biphenyl-3-yl)-acetic acid]	> 1 µM	< 0.3 µM	< 0.3 µM
CCN(Cc1cc(C(F)(F)F)ccc1-c1cc(CC(=O)O)ccc1OC)C(C)=O [Compound 1-2, {2′-[(Acetyl-ethyl-amino)-methyl]-6-methoxy-4′-trifluoromethyl-biphenyl-3-yl}-acetic acid]	> 1 µM	< 0.3 µM	< 0.3 µM
CCN(Cc1cc(C(F)(F)F)ccc1-c1cc(CC(=O)O)ccc1OC)C(=O)NCc1ccccc1 [Compound 1-96, [2′-(3-Benzyl-1-ethyl-ureidomethyl)-6-methoxy-4′-trifluoromethyl-biphenyl-3-yl]-acetic acid]	> 1 µM	< 0.3 µM	< 0.3 µM
CCN(Cc1cc(C(F)(F)F)ccc1-c1cc(CC(=O)O)ccc1OC)C(=O)OC [Compound 1-23, {2′-[(Ethyl-methoxycarbonyl-amino)-methyl]-6-methoxy-4′-trifluoromethyl-biphenyl-3-yl}-acetic acid]	> 1 µM	< 0.3 µM	< 0.3 µM
